{"source": "patent US20020137929A1", "about": "“1 - (3-heterocyclylphenyl) isothiourea, -isourea, -guanidine and -amidine herbicidal agents” (Intellectual Property Department, BASF Aktiengesellschaft, priority 1998, published 2002)", "key": {"AMBEL (Ragweed, Common) [1]": {"tested_on": "AMBEL (Ragweed, Common)", "test": "Postemergence herbicidal evaluation", "format": "in vivo, Ambrosia artemisifolia", "conditions": "postemergence", "how_it_was_run": "(§1)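 Visual 0–9 rating versus control (stand, vigor, malformation, size, chlorosis, overall appearance), taken four to five weeks post-spray. Two-week-old seedlings received roughly 0.0156–0.500 kg/ha active in acetone/water (50/50) with 0.5% TWEEN 20 via nozzle at 40 psi.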"}, "[2]": {"tested_on": "GLXMAW (Soybean, Williams)", "test": "Postemergence herbicidal evaluation", "format": "in vivo, Glycine max, (L.) Merr. cv Williams", "conditions": "postemergence", "how_it_was_run": "as §1"}, "ZEAMX (Corn, Field)": {"tested_on": "ZEAMX (Corn, Field)", "test": "Postemergence herbicidal evaluation", "format": "in vivo, Zea mays", "conditions": "postemergence", "how_it_was_run": "as §1"}, "ABUTH (Velvetleaf)": {"tested_on": "ABUTH (Velvetleaf)", "test": "Preemergence herbicidal evaluation", "format": "in vivo, Abutilon theophrasti", "conditions": "rated 4-5 weeks after treatment", "how_it_was_run": "(§2)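 Steps: mix seeds into potting soil; plant atop ~1 inch soil; spray compound in aqueous acetone (~0.0156-0.500 kg/ha equivalent); maintain in greenhouse with watering; rate visually 0-9 versus control at 4-5 weeks.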"}, "AMBEL (Ragweed, Common) [3]": {"tested_on": "AMBEL (Ragweed, Common)", "test": "Preemergence herbicidal evaluation", "format": "in vivo, Ambrosia artemisifolia", "conditions": "rated 4-5 weeks after treatment", "how_it_was_run": "as §2"}, "CASOB (Sicklepod)": {"tested_on": "CASOB (Sicklepod)", "test": "Preemergence herbicidal evaluation", "format": "in vivo, Cassia obtusifolia", "conditions": "rated 4-5 weeks after treatment", "how_it_was_run": "as §2"}, "GALAP (Galium)": {"tested_on": "GALAP (Galium)", "test": "Preemergence herbicidal evaluation", "format": "in vivo, Galium aparine", "conditions": "rate 0.0313 kg/ha; rated 4-5 weeks after treatment", "how_it_was_run": "as §2"}, "ECHCG (Barnyardgrass)": {"tested_on": "ECHCG (Barnyardgrass)", "test": "Preemergence herbicidal evaluation", "format": "in vivo, Echinochloa crus-galli", "conditions": "rated 4-5 weeks after treatment", "how_it_was_run": "as §2"}, "SETVI (Foxtail, Green)": {"tested_on": "SETVI (Foxtail, Green)", "test": "Preemergence herbicidal evaluation", "format": "in vivo, Setaria viridis", "conditions": "rated 4-5 weeks after treatment", "how_it_was_run": "as §2"}, "[4]": {"tested_on": "GLXMAW (Soybean, Williams)", "test": "Preemergence herbicidal evaluation", "format": "in vivo, Glycine max, (L.) Merr. cv Williams", "conditions": "rated 4-5 weeks after treatment", "how_it_was_run": "as §2"}, "CYPSE (Flatsedge)": {"tested_on": "CYPSE (Flatsedge)", "test": "Preemergence weed control under flooded paddy conditions", "format": "in vivo, Cyperus serotinus", "conditions": "rated 3-4 weeks after treatment", "how_it_was_run": "(§3)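 Flooded-pot preemergence screen with silt loam and seeds in the upper 0.5 cm. Dose about 0.0313 to 0.500 kg/ha, delivered into flood water; visual 0-9 score after 3 to 4 weeks.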"}, "[5]": {"tested_on": "SAGPY (Arrowhead (Pygmaea))", "test": "Preemergence weed control under flooded paddy conditions", "format": "in vivo, Sagittaria pygmaea", "conditions": "rated 3-4 weeks after treatment", "how_it_was_run": "as §3"}, "[6]": {"tested_on": "ECHORC (Watergrass (Calif.))", "test": "Postemergence weed control under flooded paddy conditions", "format": "in vivo, Echinochloa oryzoides", "conditions": "postemergence weeds, 3-4 weeks after treatment", "how_it_was_run": "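Herbicidal effect is judged by eye on a 0–9 scale versus control, 3–4 weeks after dosing. Dosing is into flood water kept 1.5–3 cm over the soil, at about 0.0313–0.500 kg/ha in aqueous/acetone 50/50 v/v, on 3–5 cm weeds and 1.5–2.5-leaf rice seedlings.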"}}, "data": [{"molecule": "O=C1CSC(=Nc2cc(N3C(=O)C4=C(CCCC4)C3=O)c(F)cc2Cl)N1c1ccccc1", "note": "[Compound 3, N-{4-chloro-2-fluoro-5-[(4-oxo-3-phenyl-2-thiazolidinylidene)amino]phenyl}-1-cyclohexene-1,2-dicarboximide]", "values": [{"measurement": "AMBEL herbicidal rating", "setting": "AMBEL (Ragweed, Common) [1]; rate 0.0313 kg/ha", "result": 2.0}, {"measurement": "AMBEL herbicidal rating", "setting": "AMBEL (Ragweed, Common) [1]; rate 0.0625 kg/ha", "result": 0.0}, {"measurement": "AMBEL herbicidal rating", "setting": "AMBEL (Ragweed, Common) [1]; rate 0.1250 kg/ha", "result": 6.0}, {"measurement": "AMBEL herbicidal rating", "setting": "AMBEL (Ragweed, Common) [1]; rate 0.2500 kg/ha", "result": 6.0}, {"measurement": "AMBEL herbicidal rating", "setting": "AMBEL (Ragweed, Common) [1]; rate 0.5000 kg/ha", "result": 9.0}, {"measurement": "GLXMAW herbicidal rating", "setting": "[2]; rate 0.0157 kg/ha", "result": 2.5}, {"measurement": "GLXMAW herbicidal rating", "setting": "[2]; rate 0.0313 kg/ha", "result": 3.5}, {"measurement": "GLXMAW herbicidal rating", "setting": "[2]; rate 0.0625 kg/ha", "result": 3.0}, {"measurement": "GLXMAW herbicidal rating", "setting": "[2]; rate 0.1250 kg/ha", "result": 4.0}, {"measurement": "GLXMAW herbicidal rating", "setting": "[2]; rate 0.2500 kg/ha", "result": 4.0}, {"measurement": "GLXMAW herbicidal rating", "setting": "[2]; rate 0.5000 kg/ha", "result": 4.5}, {"measurement": "ZEAMX herbicidal rating", "setting": "ZEAMX (Corn, Field); rate 0.0157 kg/ha", "result": 3.0}, {"measurement": "ZEAMX herbicidal rating", "setting": "ZEAMX (Corn, Field); rate 0.0313 kg/ha", "result": 3.0}, {"measurement": "ZEAMX herbicidal rating", "setting": "ZEAMX (Corn, Field); rate 0.0625 kg/ha", "result": 3.0}, {"measurement": "ZEAMX herbicidal rating", "setting": "ZEAMX (Corn, Field); rate 0.1250 kg/ha", "result": 3.0}, {"measurement": "ZEAMX herbicidal rating", "setting": "ZEAMX (Corn, Field); rate 0.2500 kg/ha", "result": 3.5}, {"measurement": "ZEAMX herbicidal rating", "setting": "ZEAMX (Corn, Field); rate 0.5000 kg/ha", "result": 3.5}, {"measurement": "ABUTH preemergence herbicidal rating", "setting": "ABUTH (Velvetleaf); rate 0.0625 kg/ha", "result": 2.0}, {"measurement": "ABUTH preemergence herbicidal rating", "setting": "ABUTH (Velvetleaf); rate 0.1250 kg/ha", "result": 2.0}, {"measurement": "ABUTH preemergence herbicidal rating", "setting": "ABUTH (Velvetleaf); rate 0.2500 kg/ha", "result": 0.0}, {"measurement": "ABUTH preemergence herbicidal rating", "setting": "ABUTH (Velvetleaf); rate 0.5000 kg/ha", "result": 6.0}, {"measurement": "AMBEL preemergence herbicidal rating", "setting": "AMBEL (Ragweed, Common) [3]; rate 0.0313 kg/ha", "result": 0.0}, {"measurement": "AMBEL preemergence herbicidal rating", "setting": "AMBEL (Ragweed, Common) [3]; rate 0.0625 kg/ha", "result": 0.0}, {"measurement": "AMBEL preemergence herbicidal rating", "setting": "AMBEL (Ragweed, Common) [3]; rate 0.1250 kg/ha", "result": 2.0}, {"measurement": "AMBEL preemergence herbicidal rating", "setting": "AMBEL (Ragweed, Common) [3]; rate 0.2500 kg/ha", "result": 2.0}, {"measurement": "AMBEL preemergence herbicidal rating", "setting": "AMBEL (Ragweed, Common) [3]; rate 0.5000 kg/ha", "result": 7.0}, {"measurement": "CASOB preemergence herbicidal rating", "setting": "CASOB (Sicklepod); rate 0.0313 kg/ha", "result": 0.0}, {"measurement": "CASOB preemergence herbicidal rating", "setting": "CASOB (Sicklepod); rate 0.0625 kg/ha", "result": 0.0}, {"measurement": "CASOB preemergence herbicidal rating", "setting": "CASOB (Sicklepod); rate 0.1250 kg/ha", "result": 0.0}, {"measurement": "CASOB preemergence herbicidal rating", "setting": "CASOB (Sicklepod); rate 0.2500 kg/ha", "result": 0.0}, {"measurement": "CASOB preemergence herbicidal rating", "setting": "CASOB (Sicklepod); rate 0.5000 kg/ha", "result": 2.0}, {"measurement": "GALAP preemergence herbicidal rating", "setting": "GALAP (Galium)", "result": 4.0}, {"measurement": "ECHCG preemergence herbicidal rating", "setting": "ECHCG (Barnyardgrass); rate 0.0313 kg/ha", "result": 0.0}, {"measurement": "ECHCG preemergence herbicidal rating", "setting": "ECHCG (Barnyardgrass); rate 0.0625 kg/ha", "result": 0.0}, {"measurement": "ECHCG preemergence herbicidal rating", "setting": "ECHCG (Barnyardgrass); rate 0.1250 kg/ha", "result": 2.0}, {"measurement": "ECHCG preemergence herbicidal rating", "setting": "ECHCG (Barnyardgrass); rate 0.2500 kg/ha", "result": 4.0}, {"measurement": "ECHCG preemergence herbicidal rating", "setting": "ECHCG (Barnyardgrass); rate 0.5000 kg/ha", "result": 6.0}, {"measurement": "SETVI preemergence herbicidal rating", "setting": "SETVI (Foxtail, Green); rate 0.0313 kg/ha", "result": 0.0}, {"measurement": "SETVI preemergence herbicidal rating", "setting": "SETVI (Foxtail, Green); rate 0.0625 kg/ha", "result": 4.0}, {"measurement": "SETVI preemergence herbicidal rating", "setting": "SETVI (Foxtail, Green); rate 0.1250 kg/ha", "result": 4.0}, {"measurement": "SETVI preemergence herbicidal rating", "setting": "SETVI (Foxtail, Green); rate 0.2500 kg/ha", "result": 4.0}, {"measurement": "SETVI preemergence herbicidal rating", "setting": "SETVI (Foxtail, Green); rate 0.5000 kg/ha", "result": 9.0}, {"measurement": "GLXMAW preemergence herbicidal rating", "setting": "[4]; rate 0.0313 kg/ha", "result": 0.0}, {"measurement": "GLXMAW preemergence herbicidal rating", "setting": "[4]; rate 0.0625 kg/ha", "result": 0.0}, {"measurement": "GLXMAW preemergence herbicidal rating", "setting": "[4]; rate 0.1250 kg/ha", "result": 0.0}, {"measurement": "GLXMAW preemergence herbicidal rating", "setting": "[4]; rate 0.2500 kg/ha", "result": 0.0}, {"measurement": "GLXMAW preemergence herbicidal rating", "setting": "[4]; rate 0.5000 kg/ha", "result": 2.0}, {"measurement": "Herbicidal rating CYPSE", "setting": "CYPSE (Flatsedge); 0.0625 kg/ha", "result": 0.0}, {"measurement": "Herbicidal rating CYPSE", "setting": "CYPSE (Flatsedge); 0.1250 kg/ha", "result": 0.0}, {"measurement": "Herbicidal rating CYPSE", "setting": "CYPSE (Flatsedge); 0.2500 kg/ha", "result": 0.0}, {"measurement": "Herbicidal rating CYPSE", "setting": "CYPSE (Flatsedge); 0.5000 kg/ha", "result": 0.0}, {"measurement": "Herbicidal rating SAGPY", "setting": "[5]; 0.0625 kg/ha", "result": 0.0}, {"measurement": "Herbicidal rating SAGPY", "setting": "[5]; 0.1250 kg/ha", "result": 0.0}, {"measurement": "Herbicidal rating SAGPY", "setting": "[5]; 0.2500 kg/ha", "result": 0.0}, {"measurement": "Herbicidal rating SAGPY", "setting": "[5]; 0.5000 kg/ha", "result": 0.0}, {"measurement": "Herbicidal rating ECHORC", "setting": "[6]; rate 0.0625 kg/ha", "result": 0.0}, {"measurement": "Herbicidal rating ECHORC", "setting": "[6]; rate 0.1250 kg/ha", "result": 0.0}, {"measurement": "Herbicidal rating ECHORC", "setting": "[6]; rate 0.2500 kg/ha", "result": 1.0}, {"measurement": "Herbicidal rating ECHORC", "setting": "[6]; rate 0.5000 kg/ha", "result": 2.0}]}]}
